Source: article PMC6850767, “Light-at-night exposure affects brain development through pineal allopregnanolone-dependent mechanisms” (eLife, 2019)

Molecular target: T1, chicken mPRα (membrane progesterone receptor α) (Gallus gallus, UniProt C6KGD4)
T1 construct: gene PAQR7; membrane fraction or whole cells; band approx. 42 kDa
T1 sequence (C6KGD4 1-346): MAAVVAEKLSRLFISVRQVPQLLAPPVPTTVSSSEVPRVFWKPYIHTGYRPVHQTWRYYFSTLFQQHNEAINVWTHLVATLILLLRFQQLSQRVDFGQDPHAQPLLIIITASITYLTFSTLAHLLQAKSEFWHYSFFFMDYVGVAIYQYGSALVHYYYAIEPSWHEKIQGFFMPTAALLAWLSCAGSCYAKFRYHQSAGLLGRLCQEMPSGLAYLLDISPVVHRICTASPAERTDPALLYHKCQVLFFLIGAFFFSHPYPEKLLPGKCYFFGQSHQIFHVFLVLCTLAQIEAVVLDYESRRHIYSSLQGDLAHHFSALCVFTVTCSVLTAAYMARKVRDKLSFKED
Test: radioligand saturation binding, Scatchard plot, cell membrane fraction

`CC(=O)[C@H]1CC[C@H]2[C@@H]3CC[C@H]4C[C@H](O)CC[C@]4(C)[C@H]3CC[C@]12C` [compound 2, allopregnanolone] showed a Kd of 11.8 ± 3.1 nM.
